Results: PubChem BioAssay AID588641 (Sanford-Burnham Center for Chemical Genomics, 2011)
Active and inactive are the calls of the source. The rule behind the calls is not given here.

biological target: alkaline phosphatase, placental type (human); assay: inhibitors of placental alkaline phosphatase – biochemical, human PLAP isozyme, set 2, selectivity assay for mouse IAP inhibitor project, SAR follow-up (AID 588641); conditions: purified human placental alkaline phosphatase, enzyme activity

IC50 | Compound
> 100 µM (inactive) | Cc1ccc(NC(=O)CCNS(=O)(=O)c2ccc3c(c2)oc(=O)n3C)cc1C
> 100 µM (inactive) | O=C(CCNS(=O)(=O)c1ccc2[nH]c(=O)oc2c1)NCCc1ccc(O)cc1
> 100 µM (inactive) | COc1ccc(CNC(=O)CCNS(=O)(=O)c2ccc3ccccc3c2)c(OC)c1
> 100 µM (inactive) | N#Cc1ccc(NC(=O)CNS(=O)(=O)c2ccc3[nH]c(=O)oc3c2)cc1
> 100 µM (inactive) | O=c1[nH]c2ccc(S(=O)(=O)NCc3ccc4c(c3)OCO4)cc2o1
> 100 µM (inactive) | O=C(NCc1ccc2c(c1)OCO2)C1CCCN(S(=O)(=O)c2ccc3[nH]c(=O)oc3c2)C1 (stereo not given)
> 100 µM (inactive) | O=C(N/N=C/c1ccc(Br)cc1F)c1cc(O)ccc1O
> 100 µM (inactive) | COc1ccc(CNS(=O)(=O)c2ccc3[nH]c(=O)oc3c2)cc1
> 100 µM (inactive) | COc1ccc(NC(=O)CCNS(=O)(=O)c2ccc3ccccc3c2)cc1OC
> 100 µM (inactive) | COc1ccc(CNC(=O)C2CCCN(S(=O)(=O)c3ccc4[nH]c(=O)oc4c3)C2)cc1 (stereo not given)
> 100 µM (inactive) | COc1ccccc1CNC(=O)CCNS(=O)(=O)c1ccc2[nH]c(=O)oc2c1
> 100 µM (inactive) | COc1ccc(CNS(=O)(=O)c2ccc3[nH]c(=O)oc3c2)c(OC)c1
> 100 µM (inactive) | O=C(CCNS(=O)(=O)c1ccc2[nH]c(=O)oc2c1)NCc1ccccc1F
> 100 µM (inactive) | CN(C)c1ccc(CNC(=O)C2CCCN(S(=O)(=O)c3ccc4[nH]c(=O)oc4c3)C2)cc1 (stereo not given)
> 100 µM (inactive) | COc1cccc(CNC(=O)CCNS(=O)(=O)c2ccc3[nH]c(=O)oc3c2)c1
> 100 µM (inactive) | O=C(CCNS(=O)(=O)c1ccc2ccccc2c1)NCCc1ccc2c(c1)OCO2
> 100 µM (inactive) | O=C(CCCNS(=O)(=O)c1ccc2[nH]c(=O)oc2c1)NCc1ccccc1Cl
> 100 µM (inactive) | COc1ccc(CNC(=O)CCNS(=O)(=O)c2ccc3c(c2)CCC3)c(OC)c1
60.8 µM | CC(C)(C)c1ccc(/C=N/NC(=O)c2cc(O)c(O)c(O)c2)cc1
> 100 µM (inactive) | Cc1ccc(CNC(=O)C2CCCN(S(=O)(=O)c3ccc4[nH]c(=O)oc4c3)C2)cc1 (stereo not given)
> 100 µM (inactive) | COc1cccc(NC(=O)CCNS(=O)(=O)c2ccc3c(c2)oc(=O)n3C)c1
> 100 µM (inactive) | O=C(CCNS(=O)(=O)c1ccc2[nH]c(=O)oc2c1)NCc1cccc(Cl)c1

IC50 | Compound
> 100 µM (inactive) | COc1ccc(CNC(=O)CNS(=O)(=O)c2ccc3[nH]c(=O)oc3c2)c(OC)c1
> 100 µM (inactive) | COc1cccc(/C=N/NC(=O)c2cc(O)c(O)c(O)c2)c1O
> 100 µM (inactive) | CCc1ccc(NC(=O)C2CCCN(S(=O)(=O)c3ccc4c(c3)oc(=O)n4C)C2)cc1 (stereo not given)
> 100 µM (inactive) | CCOc1ccc(CNC(=O)C2CCCN(S(=O)(=O)c3ccc4[nH]c(=O)oc4c3)C2)cc1OC (stereo not given)
> 100 µM (inactive) | COc1ccc(OC)c(NC(=O)CCNS(=O)(=O)c2ccc3c(c2)oc(=O)n3C)c1
> 100 µM (inactive) | O=C(N/N=C/c1c(Cl)cccc1Cl)c1cc(O)c(O)c(O)c1
> 100 µM (inactive) | Cc1ccc(C)c(NC(=O)CCNS(=O)(=O)c2ccc3ccccc3c2)c1
> 100 µM (inactive) | COc1cccc(C(=O)N/N=C/c2ccccc2F)c1
> 100 µM (inactive) | COc1cc(/C=N/NC(=O)c2cc(O)c(O)c(O)c2)ccc1O
> 100 µM (inactive) | Cc1ccc(C)c(NC(=O)C2CCCN(S(=O)(=O)c3ccc4c(c3)oc(=O)n4C)C2)c1 (stereo not given)
> 100 µM (inactive) | O=C(NCc1ccc(F)cc1)C1CCCN(S(=O)(=O)c2ccc3[nH]c(=O)oc3c2)C1 (stereo not given)
> 100 µM (inactive) | COc1ccc(C(=O)N/N=C/c2ccccc2F)cc1
> 100 µM (inactive) | O=C(N/N=C/c1c(F)cccc1Cl)c1ccc(O)cc1
> 100 µM (inactive) | COc1ccc(CNC(=O)CCNS(=O)(=O)c2ccc3[nH]c(=O)oc3c2)cc1
> 100 µM (inactive) | Cc1ccc(NC(=O)CCNS(=O)(=O)c2ccc3c(c2)oc(=O)n3C)c(C)c1
> 100 µM (inactive) | CC(C)c1ccc(NC(=O)C2CCCN(S(=O)(=O)c3ccc4c(c3)oc(=O)n4C)C2)cc1 (stereo not given)
> 100 µM (inactive) | COc1ccc(CNC(=O)CCCNS(=O)(=O)c2ccc3[nH]c(=O)oc3c2)c(OC)c1
> 100 µM (inactive) | O=C(N/N=C/c1ccccc1F)c1ccccc1OCc1ccccc1
> 100 µM (inactive) | CC(C)c1ccc(NC(=O)CCNS(=O)(=O)c2ccc3c(c2)oc(=O)n3C)cc1
> 100 µM (inactive) | Cc1ccc(NC(=O)CCNS(=O)(=O)c2ccc3c(c2)oc(=O)n3C)cc1
> 100 µM (inactive) | O=C(N/N=C/c1cccc(Cl)c1Cl)c1cc(O)c(O)c(O)c1
> 100 µM (inactive) | COc1ccc(CNC(=O)CCCNS(=O)(=O)c2ccc3[nH]c(=O)oc3c2)cc1OC

IC50 | Compound
> 100 µM (inactive) | O=C(CNS(=O)(=O)c1ccc2[nH]c(=O)oc2c1)NCCc1ccc2c(c1)OCO2
> 100 µM (inactive) | O=C(CCNS(=O)(=O)c1ccc2c(c1)CCC2)NCCc1ccc2c(c1)OCO2
> 100 µM (inactive) | O=C(CCNS(=O)(=O)c1ccc2[nH]c(=O)oc2c1)NCc1ccc(C(F)(F)F)cc1
> 100 µM (inactive) | O=C(CCNS(=O)(=O)c1ccc2[nH]c(=O)oc2c1)NCc1ccccc1Cl
> 100 µM (inactive) | O=C(CCNS(=O)(=O)c1ccc2[nH]c(=O)oc2c1)NCc1cccc(F)c1
> 100 µM (inactive) | O=C(CCCNS(=O)(=O)c1ccc2[nH]c(=O)oc2c1)NCc1ccc2c(c1)OCO2
> 100 µM (inactive) | O=c1[nH]c2ccc(S(=O)(=O)Nc3ccc4c(c3)OCO4)cc2o1
> 100 µM (inactive) | C/C(=N\NC(=O)c1cc(O)c(O)c(O)c1)c1ccc(O)cc1O
> 100 µM (inactive) | COc1ccc(CNC(=O)CCNS(=O)(=O)c2ccc3[nH]c(=O)oc3c2)c(OC)c1
> 100 µM (inactive) | CSc1cccc(NC(=O)C2CCCN(S(=O)(=O)c3ccc4c(c3)oc(=O)n4C)C2)c1 (stereo not given)
> 100 µM (inactive) | O=C(N/N=C/c1ccccc1F)c1ccc(O)cc1
> 100 µM (inactive) | COc1ccc(CCNC(=O)CCCNS(=O)(=O)c2ccc3[nH]c(=O)oc3c2)cc1OC
> 100 µM (inactive) | Cc1ccccc1CNC(=O)C1CCCN(S(=O)(=O)c2ccc3[nH]c(=O)oc3c2)C1 (stereo not given)
> 100 µM (inactive) | Cc1ccc(C)c(NS(=O)(=O)c2ccc3[nH]c(=O)oc3c2)c1
> 100 µM (inactive) | COc1ccccc1CNC(=O)CCCNS(=O)(=O)c1ccc2[nH]c(=O)oc2c1
> 100 µM (inactive) | Cc1ccc(C)c(NC(=O)CCNS(=O)(=O)c2ccc3c(c2)CCC3)c1
> 100 µM (inactive) | O=C(NCc1ccccc1)C1CCCN(S(=O)(=O)c2ccc3[nH]c(=O)oc3c2)C1 (stereo not given)
> 100 µM (inactive) | CCOc1cc(C(=O)N/N=C/c2c(F)cccc2Cl)cc(OCC)c1OCC
> 100 µM (inactive) | COc1ccc(/C=N/NC(=O)c2cc(O)c(O)c(O)c2)c(OC)c1
> 100 µM (inactive) | Cc1ccc(NC(=O)CCNS(=O)(=O)c2ccc3[nH]c(=O)oc3c2)cc1C
> 100 µM (inactive) | N#Cc1cccc(NS(=O)(=O)c2ccc3[nH]c(=O)oc3c2)c1
